Laboratory results reported in US20090041672A1, “Drug for Treating or Diagnosing Vascular Lesion in the Skin or the Subcutaneous Soft Tissue Caused by Light Irradiation” (priority 2005, published 2009).

Assays:
[1] = system: cock's combs; assay: PDT of cock's comb, model of cutaneous vascular lesion (capillary hemangioma); format: in vivo, cocks
Excerpt: Animals Used: cocks (bodyweight: 2.5 to 3.5 kg) of 22 to 24 weeks old
Photosensitizer: talaporfin sodium
Laser Used Panalas6405, diode laser, wavelength: 664.5 nm±2 nm, output power: 75-500 mW
(§1) As the model of PDT to cutaneous vascular lesion (capillary hemangioma), cock's combs were used. Cock's comb is recognized as a model of cutaneous vascular lesion (capillary hemangioma) in this field. To each cock of 22 to 24 weeks old (bodyweight: about 2.5 kg), talaporfin sodium solution (concentration: 5 mg/ml) was intravenously injected from the brachial vein in an amount of 2.5 mg/kg bodyweight of the cock, in terms of the amount of talaporfin sodium. Immediately after the intravenous injection, the cock's comb was irradiated with a diode laser (wavelength: 664.5 nm±2 nm, irradiation power density: 127 mW/cm^2, energy density: 25 J/cm^2 or 50 J/cm^2). As an experimental group, (i) PDT-performed group was made, and as control groups, (ii) a group to which only the intravenous injection of talaporfin sodium was performed, and (iii) a group to which only laser irradiation was performed, were made. The mean plasma talaporfin sodium level at the end of the treatment was also measured.
Morphological changes during 7 days after the treatment were visually observed, and the cocks were subjected to autopsy 7 days after the treatment. Tissue preparations were stained by hematoxylin eosin staining by a conventional method, and as required, PTAH staining (fibrin staining) and AZAN staining (collagen fiber staining) were added.

[2] = Plasma drug level in human after PDT; format: in vivo; details: from actually measured plasma level of Example 2
Procedure: (§2) To 2 normal individuals (Subject A: normal person, Subject B: normal person), talaporfin sodium was intravenously administered at a dose of 0.2 mg/kg. After the administration, the skin of the upper arm was irradiated with a diode laser (irradiation conditions: irradiation energy of 25 J/cm^2 and 50 J/cm^2 at an […] of 127 mW/cm^2, diameter of irradiated spots: 1 cm in both spots). Subject A was followed up for 2 weeks and Subject B was followed up for 2 months.
Further, it was confirmed from the change with time of the plasma drug level measured after the PDT that the plasma level at which the photosensitive reaction no longer occurs is attained at 24 to 48 hours from the intravenous injection. This period of time is almost coincident with the period of time deduced from the model of pharmacokinetics, so that the correctness of the above-described estimated required shading time was confirmed.

[3] = Plasma talaporfin sodium level in cocks at the end of treatment; format: in vivo; details: 2.5 mg/kg intravenous, at end of laser treatment
Procedure: as §1

[4] = system: skin of the upper arm; assay: Safety tests to human: PDT on skin of the upper arm of normal individuals; format: in vivo
Procedure: as §2

[5] = PDT-performed group, autopsy 7 days after treatment
[6] = control group, only drug administration, no laser

Which “histological findings: blood vessels in the dermis (hematoxylin eosin)” value [1, 5] does the source give for “Tetrasodium salt of mono-L-aspartyl chlorin e6 [talaporfin sodium]” here?
Its value is “disappearance of vasodilated blood vessels in the dermis was observed”.

What about the “histological findings: hyperplasia of collagen fibers in the stroma” value [1, 5] of the same substance?
Its value is “not observed”.

And the “histological findings: stratum corneum epidermidis and stratum basale epidermidis in the irradiated site” value [1, 5]?
The value was “the continuity of the stratum corneum epidermidis was maintained, and the stratum basale epidermidis was also conserved”.

What about the “histological findings: vascular endothelial cells in the dermis (highly magnified image)” value [1, 5] of the same substance?
The value was “disappearance of vascular endothelial cells was observed”.

What about the “visual findings: decoloration reaction” value ([1]; PDT-performed group: 2.5 mg/kg i.v. + diode laser 664.5 nm, 127 mW/cm^2, 25 or 50 J/cm^2, observed 7 days) of the same substance?
Its value is “decoloration reaction was observed at the site coincident with the irradiated site”.

And the histological findings [1, 6]?
The histological findings was “No changes were observed”.

And the “visual findings: decoloration reaction” value [1, 6]?
The value was “Decoloration reaction was not observed”.

What about the “amount of talaporfin sodium needed in human for attaining the plasma level found in cocks (2.3 μg/mL)” value [2] of the same substance?
The value was 0.2 mg/kg.

And the “mean plasma talaporfin sodium level at the end of treatment” value [3]?
The value was 2.3 µg/mL.

And the “edema in the irradiated sites and vicinities” value ([4]; 0.2 mg/kg i.v. + diode laser 25 and 50 J/cm^2, from immediately after the PDT)?
The value was “slight edema was observed”.

What about the “erythema in the irradiated sites” value ([4]; 0.2 mg/kg i.v. + diode laser 25 and 50 J/cm^2, up to 2 days after the treatment) of the same substance?
The value was “slight erythema was observed”.

What about the “erythema in the irradiated sites” value ([4]; 0.2 mg/kg i.v. + diode laser, one week after the treatment) of the same substance?
Its value is “the erythema had been disappeared”.

And the “side effects at two months from the treatment” value ([4]; Subject B, 0.2 mg/kg i.v. + diode laser)?
Its value is “no side effects were observed”.
